Key:
Assay type in all cases: biochemical
[1] = target: T1, human ROCK2 enzyme kinase domain (Homo sapiens, UniProt O75116); test: fluorescence coupling (TR-FRET) enzymatic assay, ROCK2; conditions: 4 nM enzyme, 50 nM Ulight-CREBTide, one hour room temperature
T1 construct: GST; purchased Carna BioSciences 01-110
Protocol: (§1) Dose-response curves for compounds of the present invention were determined using a fluorescence coupling enzymatic assay using purified C-terminal truncated human ROCK1 catalytic domain (amino acids 1-477 of accession number NP_005397.1) fused to GST (Carna BioSciences, Catalog #01-109) and purified C-terminal truncated human ROCK2 enzyme kinase domain (amino acids 1-553 of accession number NP_004841.2) fused to GST BioSciences, Catalog #01-110). In addition, full length cGMP-dependent protein kinase 1 (PKG or PRKG1; amino acids 1-686 of accession number NP_006249.1) fused to GST (Carna BioSciences, Catalog #01-142), full length PKACα (PRKACA; amino acids 1-351 of accession number NP_002721.1) fused to GST (Carna BioSciences, Catalog #01-127), and C-terminal truncated human AKT1 catalytic domain (amino acids 104-480 of accession number NP_005154.1) fused to GST Biosciences, Catalog #01-101) were used as a control to measure any non-desired off-target kinase activity.
(§2) Briefly, compounds of the present invention were solubilized in DMSO and a series of 12, three-fold serial dilutions were made for each compound in 2.5% DMSO. The initial starting concentration for the serial dilutions of each compound was 10 μM or 100 μM. Control samples lacking compound, ROCK enzyme or ATP also were prepared and processed in parallel with compound test samples.
(§3) A 4 μL aliquot of each serial dilution of test compound diluted in H2O with 2.5% DMSO was added to a well containing 4 μL of 10 nM purified N-truncated ROCK1 (4 nM final concentration), 10 nM purified N-truncated ROCK2 enzyme (4 nM final concentration), 1.25 nM AKT1 (0.5 nM final concentration), 25 pM PKACA (10 pM final concentration) or 20 nM PKG (8 nM final concentration), in reaction buffer containing 50 mM Hepes, pH 7.5, 1 mM EGTA, 10 mM MgCl2, 2 mM DTT, and 0.01% Tween 20 (final concentration). To initiate the enzymatic reaction, 2 μL of a solution was added to each well to provide a final concentration of 50 nM Ulight-CREBTide peptide substrate (Perkin Elmer, Catalog #TRF0107) and 4 μM ATP for ROCK1 and AKT1 assays, […] for ROCK2 assays and 30 μM ATP for PKG assays, or 1 μM ATP for PKACA assays. The reaction mixtures were incubated at room temperature for one hour. After one hour, the reaction was stopped by the addition of a 10 solution of an Europium-labelled phospho-CREB (Ser133) antibody (Perkin Elmer, Catalog #TRF0200) in LANCE buffer supplemented with 20 mM EDTA. The stopped reaction mixtures were incubated at room temperature for 90 minutes. The TR-FRET 665/620 ratios were determined using a Clariostar monochromator plate reader instrument (BMG LabTech) in accordance with the manufacturer's instructions. The ICso value for each compound was determined from each dose-response curve using GraphPad Prism 7 software with a sigmodial dose response. Key: A is IC50≤100 nM; B is 100 nM<IC50<1000 nM; C is 1,000<IC50≤10,000 nM; D is IC50>10,000 nM

[2] = target: T2, human AKT1 catalytic domain (Homo sapiens, UniProt P31749); test: fluorescence coupling (TR-FRET) enzymatic assay, AKT1 off-target control; conditions: 0.5 nM enzyme, 4 μM ATP, 50 nM Ulight-CREBTide, one hour room temperature
T2 construct: GST; purchased Carna BioSciences 01-101
T2 sequence (P31749 104-480): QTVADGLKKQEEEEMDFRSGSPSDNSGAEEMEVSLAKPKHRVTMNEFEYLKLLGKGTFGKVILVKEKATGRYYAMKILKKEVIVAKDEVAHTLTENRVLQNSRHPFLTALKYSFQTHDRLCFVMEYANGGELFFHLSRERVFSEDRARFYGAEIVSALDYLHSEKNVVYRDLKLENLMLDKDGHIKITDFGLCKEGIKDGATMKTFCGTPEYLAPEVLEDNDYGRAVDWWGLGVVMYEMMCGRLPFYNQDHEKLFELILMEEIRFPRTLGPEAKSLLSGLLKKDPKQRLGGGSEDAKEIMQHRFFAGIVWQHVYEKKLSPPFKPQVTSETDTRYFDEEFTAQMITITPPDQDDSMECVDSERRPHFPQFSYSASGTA
Protocol: as §1, §2, §3

[3] = target: T3, cGMP-dependent protein kinase 1 (PKG or PRKG1) (Homo sapiens, UniProt Q13976); test: fluorescence coupling (TR-FRET) enzymatic assay, PKG off-target control; conditions: 8 nM enzyme, 30 μM ATP, 50 nM Ulight-CREBTide, one hour room temperature
T3 construct: GST; purchased Carna BioSciences 01-142
T3 sequence (Q13976 1-686 isoform Q13976-2): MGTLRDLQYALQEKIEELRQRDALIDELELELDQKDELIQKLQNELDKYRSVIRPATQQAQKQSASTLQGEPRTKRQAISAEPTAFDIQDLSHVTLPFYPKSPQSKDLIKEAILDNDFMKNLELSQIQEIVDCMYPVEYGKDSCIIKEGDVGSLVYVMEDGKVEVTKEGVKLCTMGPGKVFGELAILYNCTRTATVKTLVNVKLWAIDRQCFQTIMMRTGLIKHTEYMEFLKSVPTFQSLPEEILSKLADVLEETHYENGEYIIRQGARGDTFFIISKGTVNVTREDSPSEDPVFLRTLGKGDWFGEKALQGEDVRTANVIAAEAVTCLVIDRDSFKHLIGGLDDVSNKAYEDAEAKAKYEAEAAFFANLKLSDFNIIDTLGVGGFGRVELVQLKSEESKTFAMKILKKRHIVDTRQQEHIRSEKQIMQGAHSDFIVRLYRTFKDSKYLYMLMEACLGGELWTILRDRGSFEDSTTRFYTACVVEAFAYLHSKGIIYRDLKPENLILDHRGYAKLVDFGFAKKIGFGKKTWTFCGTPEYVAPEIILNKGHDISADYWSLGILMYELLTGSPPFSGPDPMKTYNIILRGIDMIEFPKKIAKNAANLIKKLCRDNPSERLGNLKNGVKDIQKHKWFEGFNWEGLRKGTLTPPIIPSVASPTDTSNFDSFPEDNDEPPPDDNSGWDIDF
Protocol: as §1, §2, §3

[4] = target: T4, human ROCK1 catalytic domain (Homo sapiens, UniProt Q13464); test: fluorescence coupling (TR-FRET) enzymatic assay, ROCK1; conditions: 4 nM enzyme, 4 μM ATP, 50 nM Ulight-CREBTide, one hour room temperature; read-out: ROCK1 IC50
T4 construct: GST; purchased Carna BioSciences 01-109
T4 sequence (Q13464 1-477): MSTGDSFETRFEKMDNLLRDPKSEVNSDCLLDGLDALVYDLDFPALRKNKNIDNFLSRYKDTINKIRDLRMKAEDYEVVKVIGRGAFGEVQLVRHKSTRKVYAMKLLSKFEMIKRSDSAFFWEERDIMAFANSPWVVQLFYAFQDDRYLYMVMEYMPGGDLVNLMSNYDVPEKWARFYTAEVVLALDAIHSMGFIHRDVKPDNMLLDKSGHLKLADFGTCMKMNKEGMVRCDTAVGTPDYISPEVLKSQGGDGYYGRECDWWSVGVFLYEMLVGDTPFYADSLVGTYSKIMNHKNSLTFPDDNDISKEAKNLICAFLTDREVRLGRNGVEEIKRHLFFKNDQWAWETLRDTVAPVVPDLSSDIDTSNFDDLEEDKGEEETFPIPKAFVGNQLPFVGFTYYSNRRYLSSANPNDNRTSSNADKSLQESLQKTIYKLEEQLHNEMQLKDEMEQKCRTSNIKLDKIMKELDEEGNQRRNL
Protocol: as §2
The reaction mixtures were incubated at room temperature for one hour. After one hour, the reaction was stopped by the addition of a 10 solution of an Europium-labelled phospho-CREB (Ser133) antibody (Perkin Elmer, Catalog #TRF0200) in LANCE buffer supplemented with 20 mM EDTA. The stopped reaction mixtures were incubated at room temperature for 90 minutes. […] The ICso value for each compound was determined from each dose-response curve using GraphPad Prism 7 software with a sigmodial dose response.

PKACα (PRKACA) = target: T5, PKACα (PRKACA) (Homo sapiens, UniProt P17612); test: fluorescence coupling (TR-FRET) enzymatic assay, PKACA off-target control; conditions: 10 pM enzyme, 1 μM ATP, 50 nM Ulight-CREBTide, one hour room temperature
T5 construct: GST; purchased Carna BioSciences 01-127
Protocol: as §1, §2, §3

T1 sequence (O75116 1-553): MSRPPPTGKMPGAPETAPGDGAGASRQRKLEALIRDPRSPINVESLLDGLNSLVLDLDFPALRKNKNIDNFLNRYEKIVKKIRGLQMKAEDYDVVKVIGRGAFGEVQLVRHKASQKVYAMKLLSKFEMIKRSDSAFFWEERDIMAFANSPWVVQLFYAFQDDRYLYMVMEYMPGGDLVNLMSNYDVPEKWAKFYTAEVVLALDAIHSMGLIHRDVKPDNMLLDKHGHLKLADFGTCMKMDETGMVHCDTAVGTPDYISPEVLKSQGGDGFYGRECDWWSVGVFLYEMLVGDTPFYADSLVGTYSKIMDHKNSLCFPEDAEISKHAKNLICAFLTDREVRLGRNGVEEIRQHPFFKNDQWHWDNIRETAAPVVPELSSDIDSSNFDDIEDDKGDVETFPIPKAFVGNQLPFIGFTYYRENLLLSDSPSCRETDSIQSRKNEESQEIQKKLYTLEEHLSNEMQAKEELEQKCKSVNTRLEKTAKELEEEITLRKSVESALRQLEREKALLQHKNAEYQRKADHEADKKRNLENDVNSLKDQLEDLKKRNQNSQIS

Row | SMILES | IC50 [1] [µM] | IC50 [2] [µM] | IC50 [3] [µM] | IC50 [4] [µM] | IC50 (PKACα (PRKACA)) [µM]
1 | N#Cc1ccc2c(c1)N(S(=O)(=O)c1cc(Cl)cc3c(=O)[nH]ccc13)CC2 [Example 20, 1-((7-Chloro-1-oxo-1,2-dihydroisoquinolin-5-yl)sulfonyl)indoline-6-carbonitrile] | > 10 | > 10 | > 10 | > 10 | > 10
2 | O=S(=O)(c1cccc2c(O)ncc(F)c12)N1CCc2ccc(Cl)cc21 [Example 21, 5-((6-Chloroindolin-1-yl)sulfonyl)-4-fluoroisoquinolin-1-ol] | > 10 | > 10 | > 10 | > 10 | > 10
3 | Cc1cnc(O)c2cccc(S(=O)(=O)N3CCc4ccc(C#N)cc43)c12 [Example 22, 1-((1-Hydroxy-4-methylisoquinolin-5-yl)sulfonyl)indoline-6-carbonitrile] | < 0.1 | > 10 | > 10 | < 0.1 | 1 to 10
4 | Cc1cc(C#N)cc2c1CCN2S(=O)(=O)c1cccc2c(O)ncc(C)c12 [Example 23, 1-((1-Hydroxy-4-methylisoquinolin-5-yl)sulfonyl)-4-methylindoline-6-carbonitrile] | 0.1 to 1 | > 10 | > 10 | 0.1 to 1 | > 10
5 | Cc1cnc(O)c2cccc(S(=O)(=O)N3CCc4ccc(Cl)cc43)c12 [Example 24, 5-((6-Chloroindolin-1-yl)sulfonyl)-4-methylisoquinolin-1-ol] | 1 to 10 | > 10 | > 10 | 1 to 10 | > 10
6 | O=c1[nH]ncc2c(S(=O)(=O)N3CCc4ccc(Cl)cc43)cccc12 [Example 25, 5-((6-Chloroindolin-1-yl)sulfonyl)phthalazin-1 (2H)-one] | 1 to 10 | > 10 | > 10 | 1 to 10 | > 10
7 | N#Cc1ccc2c(c1)N(S(=O)(=O)c1cccc3c(=O)[nH]ncc13)CC2 [Example 26, 1-((1-Oxo-1,2-dihydrophthalazin-5-yl)sulfonyl)indoline-6-carbonitrile] | 0.1 to 1 | > 10 | > 10 | 0.1 to 1 | > 10
8 | N#Cc1ccc2c(c1)N(S(=O)(=O)c1cccc3c(=O)[nH]cc(Cl)c13)CC2 [Example 27, 1-((4-chloro-1-oxo-1,2-dihydroisoquinolin-5-yl)sulfonyl)indoline-6-carbonitrile] | < 0.1 | 1 to 10 | > 10 | < 0.1 | 1 to 10
9 | N#Cc1cc2c(cn1)CCN2S(=O)(=O)c1cccc2c(=O)[nH]ccc12 [Example 28, 1-((1-oxo-1,2-dihydroisoquinolin-5-yl)sulfonyl)-2,3-dihydro-1H-pyrrolo[3,2-c]pyridine-6-carbonitrile] | 0.1 to 1 | > 10 | > 10 | 0.1 to 1 | > 10
10 | COc1cc(C#N)cc2c1CCN2S(=O)(=O)c1cccc2c(=O)[nH]ccc12 [Example 29, 4-methoxy-1-((1-oxo-1,2-dihydroisoquinolin-5-yl)sulfonyl)indoline-6-carbonitrile] | < 0.1 | 1 to 10 | > 10 | < 0.1 | 1 to 10
11 | CC(=O)Nc1cc(C#N)cc2c1CCN2S(=O)(=O)c1cccc2c(=O)[nH]ccc12 [Example 30, N-(6-cyano-1-((1-oxo-1,2-dihydroisoquinolin-5-yl)sulfonyl)indolin-4-yl)acetamide] | < 0.1 | 1 to 10 | > 10 | < 0.1 | 1 to 10
12 | N#Cc1cc(N)c2c(c1)N(S(=O)(=O)c1cccc3c(=O)[nH]ccc13)CC2 [Example 31, 4-amino-1-((1-oxo-1,2-dihydroisoquinolin-5-yl)sulfonyl)indoline-6-carbonitrile] | < 0.1 | > 10 | > 10 | < 0.1 | 1 to 10
13 | CC(=O)Nc1cc(C#N)cc2c1CCN2S(=O)(=O)c1cccc2c(=O)[nH]cc(C)c12 [Example 32, N-(6-cyano-1-((4-methyl-1-oxo-1,2-dihydroisoquinolin-5-yl)sulfonyl)indolin-4-yl)acetamide] | < 0.1 | > 10 | 1 to 10 | < 0.1 | > 10
14 | Cc1c[nH]c(=O)c2cccc(S(=O)(=O)N3CCc4c(N)cc(C#N)cc43)c12 [Example 33, 4-amino-1-((4-methyl-1-oxo-1,2-dihydroisoquinolin-5-yl)sulfonyl)indoline-6-carbonitrile] | < 0.1 | > 10 | > 10 | < 0.1 | > 10
15 | Cc1c[nH]c(=O)c2cccc(S(=O)(=O)N3CCc4c(N(C)C)cc(C#N)cc43)c12 [Example 34, 4-(dimethylamino)-1-((4-methyl-1-oxo-1,2-dihydroisoquinolin-5-yl)sulfonyl)indoline-6-carbonitrile] | 1 to 10 | > 10 | > 10 | 1 to 10 | > 10
16 | CC(=O)Nc1cc(C#N)cc2c1CCN2S(=O)(=O)c1cccc2c(=O)[nH]cc(Cl)c12 [Example 35, N-(1-((4-chloro-1-oxo-1,2-dihydroisoquinolin-5-yl)sulfonyl)-6-cyanoindolin-4-yl)acetamide] | < 0.1 | > 10 | 1 to 10 | < 0.1 | > 10
17 | N#Cc1cc(N)c2c(c1)N(S(=O)(=O)c1cccc3c(=O)[nH]cc(Cl)c13)CC2 [Example 36, 4-amino-1-((4-chloro-1-oxo-1,2-dihydroisoquinolin-5-yl)sulfonyl)indoline-6-carbonitrile] | < 0.1 | > 10 | 1 to 10 | < 0.1 | > 10

From US11912719B2, “Substituted isoquinolines as rock kinase inhibitors” (Cervello Therapeutics LLC, priority 2018, dated 2024)
